Experimental data as given in patent US20240190890A1, “MK2 INHIBITORS AND USES THEREOF” (Bristol-Myers Squibb Company, priority 2022, published 2024).

Molecular target: p38a activated, mitogen-activated protein kinase-activated protein kinase 2 (MAPKAP-K2 or MK2) enzyme (Homo sapiens (Human), UniProt P49137)
Test: MK2 Omnia continuous-read kinase assay for compound potency
Format: biochemical
Conditions: [MK-2]=0.4 nM, [ATP]=10 μM, [ST3-Sox]=10 μM; room temperature
From the text: Mitogen-Activated Protein Kinase-Activated Protein Kinase 2 Omnia® Assay for Compound Potency Assessment:
The protocol below describes a continuous-read kinase assay optimized to measure potency of compounds against p38a activated, mitogen-activated protein kinase-activated protein kinase 2 (MAPKAP-K2 or MK2) enzyme. Further details of this assay are described by Life Technologies, Carlsbad, CA on their website at the following URL: http://tools.lifetechnologies.com/content/sfs/manuals/omnia_kinase_assay_man.pdf. • [Reagent] used: • [MK-2]=0.4 nM, • [ATP]=10 μM and • [ST3-Sox]=10 μM (ATP^appKM=10 μM)
Briefly, 10× stock solutions of MK2 (PV3317, from Life Technologies), 1.13X ATP (AS001A), and Sox conjugated peptide substrate, S/T3-Sox, (KZN1031) were prepared in 1× kinase reaction buffer consisting of 20 mM Tris, pH 7.5, 5 mM MgCl2, 1 mM EGTA, 5 mM β-glycerophosphate, 5% glycerol (10× stock, KB001A) and 0.2 mM DTT (DS001A). Enzyme solution (5 μL) was added to each of DMSO ([…]) or serially diluted test compounds prepared in DMSO in a Corning (#3574) 384-well, white, non-binding surface microtiter plate (Corning, NY). Kinase reactions were started with the addition of 45 μL of the ATP-peptide substrate S/T3-Sox mix and monitored every 71 seconds for 120 minutes at λex360/λem485 in a Synergy H4 plate reader from BioTek (Winooski, VT) at room temperature.
Background signals from the no enzyme control wells were subtracted from all progress curves. The initial linear portions of the net progress curves were fit according to a linear equation to yield the slope and percentage of inhibition (% inhibition) at each compound concentration. The net progress curves obtained during the first two hours of reactions were also fit according to an ascending single-exponential equation (Eq. 1) to yield kobs values at each compound concentration. Plots of % Inhibition versus inhibitor concentrations were fit according to a dose-response equation (Eq. 2) to generate IC50 and Hill slope values while plots of kobs versus inhibitor concentration were fit according to Equation 3 (Eq. 3) to generate apparent kinact/K1 values using the GraphPad PRISM software (Version 6.00; GraphPad San Diego, CA).
where F is the fluorescence intensity from the plate reader, V0 is a constant reflecting the relationship between the instrument readout and product concentration, t is time, e is Euler's number, and kobs is the observed inactivation rate constant.
where % Inhibition is percentage of inhibition, IC50 is half maximal inhibitory concentration, [I] is the inhibitor concentration, and n is the Hill slope.
where kobs is the observed inactivation rate constant, kinact is the apparent inactivation rate constant, K1 is the apparent inhibition constant, and [I] is the inhibitor concentration. […] Potency results for the compounds tested are shown in Table 4 in the column entitled “MK2 IC50.”

Sequence of p38a activated, mitogen-activated protein kinase-activated protein kinase 2 (MAPKAP-K2 or MK2) enzyme (P49137 whole entry): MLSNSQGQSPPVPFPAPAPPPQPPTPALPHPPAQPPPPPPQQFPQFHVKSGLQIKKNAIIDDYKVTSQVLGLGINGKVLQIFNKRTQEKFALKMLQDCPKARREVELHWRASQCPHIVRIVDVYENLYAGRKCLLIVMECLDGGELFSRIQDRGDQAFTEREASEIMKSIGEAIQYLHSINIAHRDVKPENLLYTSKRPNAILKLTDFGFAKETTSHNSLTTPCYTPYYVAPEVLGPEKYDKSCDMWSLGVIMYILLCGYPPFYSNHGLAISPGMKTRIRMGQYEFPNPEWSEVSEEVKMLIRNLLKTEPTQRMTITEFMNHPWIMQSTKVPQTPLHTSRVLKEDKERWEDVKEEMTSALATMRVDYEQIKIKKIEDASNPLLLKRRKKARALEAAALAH

Question: How did the IC50 turn out when `C=Cc1nc(C)n(-c2ccc3c(ccc4sc5c(c43)NC[C@@H](C)NC5=O)n2)n1` [Example I-261, (R)-10-methyl-3-(5-methyl-3-vinyl-1H-1,2,4-triazol-1-yl)-9,10,11,12-tetrahydro-8H-[1,4]diazepino[5′,6′:4,5]thieno[3,2-f]quinolin-8-one] was run?
Answer: 1000 nM

Question: Which IC50 does the source give for `C=Cc1cc(-c2ccc3c(ccc4sc5c(c43)NC[C@@H](C)NC5=O)n2)c(NC)nn1` [Example I-128, (R)-10-methyl-3-(3-(methylamino)-6-vinylpyridazin-4-yl)-9,10,11,12-tetrahydro-8H-[1,4]diazepino[5′,6′:4,5]thieno[3,2-f]quinolin-8-one] here?
Answer: 19 nM

Question: Which IC50 does the source give for `C=Cc1cc(-c2ccc3c(ccc4sc5c(c43)NC[C@@H](C)NC5=O)n2)c(CN2C[C@@H](C)O[C@@H](C)C2)cn1` [Example I-213, (R)-3-(5-(((2S,6R)-2,6-dimethylmorpholino)methyl)-2-vinylpyridin-4-yl)-10-methyl-9,10,11,12-tetrahydro-8H-[1,4]diazepino[5′,6′:4,5]thieno[3,2-f]quinolin-8-one] here?
Answer: 103 nM

Question: `C[C@@H]1CNc2c(sc3ccc4nc(-c5cc(Cl)nc(Cl)c5)ccc4c23)C(=O)N1` [Example I-68, (R)-3-(2,6-dichloropyridin-4-yl)-10-methyl-9,10,11,12-tetrahydro-8H-[1,4]diazepino[5′,6′:4,5]thieno[3,2-f]quinolin-8-one] was tested. Which IC50 did it give?
Answer: 472 nM

Question: `C=Cc1cc(-c2ccc3c(ccc4sc5c(c43)NC[C@@H](C)NC5=O)n2)c(F)c(CN2CCOCC2)n1` [Example I-198, (R)-3-(3-fluoro-2-(morpholinomethyl)-6-vinylpyridin-4-yl)-10-methyl-9,10,11,12-tetrahydro-8H-[1,4]diazepino[5′,6′:4,5]thieno[3,2-f]quinolin-8-one] was tested. Which IC50 did it give?
Answer: 106 nM

Question: For `C=Cc1nc(CO)cc(-c2ccc3c(ccc4sc5c(c43)NC[C@@H](C)NC5=O)n2)n1` [Example I-85, (R)-3-(6-(hydroxymethyl)-2-vinylpyrimidin-4-yl)-10-methyl-9,10,11,12-tetrahydro-8H-[1,4]diazepino[5′,6′:4,5]thieno[3,2-f]quinolin-8-one], which IC50 is on record?
Answer: 11 nM

Question: How did the IC50 turn out when `C=Cc1nn(C)nc1-c1ccc2c(ccc3sc4c(c32)NC[C@@H](C)NC4=O)n1` [Example I-232, (R)-10-methyl-3-(2-methyl-5-vinyl-2H-1,2,3-triazol-4-yl)-9,10,11,12-tetrahydro-8H-[1,4]diazepino[5′,6′:4,5]thieno[3,2-f]quinolin-8-one] was run?
Answer: 77 nM

Question: Which IC50 does the source give for `C=Cc1cccc(-c2ccc3c(ccc4sc5c(c43)NC[C@@H](C)NC5=O)n2)n1` [Example I-54, (R)-10-methyl-3-(6-vinylpyridin-2-yl)-9,10,11,12-tetrahydro-8H-[1,4]diazepino[5′,6′:4,5]thieno[3,2-f]quinolin-8-one] here?
Answer: 61 nM

Question: Which IC50 does the source give for `C=Cc1cc(-c2ccc3c(ccc4sc5c(c43)NC[C@@H](C)NC5=O)n2)cc(N2CC(F)(F)C2)n1` [Example I-184, (R)-3-(2-(3,3-difluoroazetidin-1-yl)-6-vinylpyridin-4-yl)-10-methyl-9,10,11,12-tetrahydro-8H-[1,4]diazepino[5′,6′:4,5]thieno[3,2-f]quinolin-8-one] here?
Answer: 175 nM

Question: With `C=Cc1cc(-c2ccc3c(ccc4sc5c(c43)NC[C@@H](C)NC5=O)n2)c(OC)cn1` [Example I-256, (R)-3-(5-methoxy-2-vinylpyridin-4-yl)-10-methyl-9,10,11,12-tetrahydro-8H-[1,4]diazepino[5′,6′:4,5]thieno[3,2-f]quinolin-8-one] as the compound, how does the IC50 read?
Answer: 20 nM

Question: Which IC50 does the source give for `C[C@@H]1CNc2c(sc3ccc4nc(-c5cc(CN6CCN(C)CC6)nc(Cl)n5)ccc4c23)C(=O)N1` [Example I-87, (R)-3-(2-chloro-6-((4-methylpiperazin-1-yl)methyl)pyrimidin-4-yl)-10-methyl-9,10,11,12-tetrahydro-8H-[1,4]diazepino[5′,6′:4,5]thieno[3,2-f]quinolin-8-one] here?
Answer: 283 nM

Question: With `CC#Cc1nccc(-c2ccc3c(ccc4sc5c(c43)NC[C@@H](C)NC5=O)n2)n1` [Example I-53, (R)-10-methyl-3-(2-(prop-1-yn-1-yl)pyrimidin-4-yl)-9,10,11,12-tetrahydro-8H-[1,4]diazepino[5′,6′:4,5]thieno[3,2-f]quinolin-8-one] as the compound, how does the IC50 read?
Answer: 213 nM

Question: How did the IC50 turn out when `C#Cc1cc(-c2ccc3c(ccc4sc5c(c43)NC[C@@H](C)NC5=O)n2)c(CN2CCOCC2)cn1` [Example I-154, (R)-3-(2-ethynyl-5-(morpholinomethyl)pyridin-4-yl)-10-methyl-9,10,11,12-tetrahydro-8H-[1,4]diazepino[5′,6′:4,5]thieno[3,2-f]quinolin-8-one] was run?
Answer: 49 nM

Question: For `C=Cc1ccn(-c2ccc3c(ccc4sc5c(c43)NC[C@@H](C)NC5=O)n2)n1` [Example I-147, (R)-10-methyl-3-(3-vinyl-1H-pyrazol-1-yl)-9,10,11,12-tetrahydro-8H-[1,4]diazepino[5′,6′:4,5]thieno[3,2-f]quinolin-8-one], which IC50 is on record?
Answer: 104 nM

Question: How did the IC50 turn out when `C[C@@H]1CNc2c(sc3ccc4nc(-c5nc(Cl)ncc5CO)ccc4c23)C(=O)N1` [Example I-75, (R)-3-(2-chloro-5-(hydroxymethyl)pyrimidin-4-yl)-10-methyl-9,10,11,12-tetrahydro-8H-[1,4]diazepino[5′,6′:4,5]thieno[3,2-f]quinolin-8-one] was run?
Answer: 470 nM

Question: How did the IC50 turn out when `C[C@@H]1CNc2c(sc3ccc4nc(-c5cc(Cl)nc(N6CCN(C)CC6)n5)ccc4c23)C(=O)N1` [Example I-17, (R)-3-(6-chloro-2-(4-methylpiperazin-1-yl)pyrimidin-4-yl)-10-methyl-9,10,11,12-tetrahydro-8H-[1,4]diazepino[5′,6′:4,5]thieno[3,2-f]quinolin-8-one] was run?
Answer: 137 nM

Question: With `C#Cc1nc(C#CC(C)(C)N)cc(-c2ccc3c(ccc4sc5c(c43)NC[C@@H](C)NC5=O)n2)n1` [Example I-65, (R)-3-(6-(3-amino-3-methylbut-1-yn-1-yl)-2-ethynylpyrimidin-4-yl)-10-methyl-9,10,11,12-tetrahydro-8H-[1,4]diazepino[5′,6′:4,5]thieno[3,2-f]quinolin-8-one] as the compound, how does the IC50 read?
Answer: 132 nM

Question: `C#Cc1ncc(COCC)c(-c2ccc3c(ccc4sc5c(c43)NC[C@@H](C)NC5=O)n2)n1` [Example I-12, (R)-3-(5-(ethoxymethyl)-2-ethynylpyrimidin-4-yl)-10-methyl-9,10,11,12-tetrahydro-8H-[1,4]diazepino[5′,6′:4,5]thieno[3,2-f]quinolin-8-one] was tested. Which IC50 did it give?
Answer: 87 nM

Question: For `C#Cc1cc(-c2ccc3c(ccc4sc5c(c43)NC[C@@H](C)NC5=O)n2)cc(CN2C[C@@H](C)O[C@@H](C)C2)n1` [Example I-186, (R)-3-(2-(((2S,6R)-2,6-dimethylmorpholino)methyl)-6-ethynylpyridin-4-yl)-10-methyl-9,10,11,12-tetrahydro-8H-[1,4]diazepino[5′,6′:4,5]thieno[3,2-f]quinolin-8-one], which IC50 is on record?
Answer: 26 nM

Question: Which IC50 does the source give for `C=Cc1cc(-c2ccc3c(ccc4sc5c(c43)NC[C@@H](C)NC5=O)n2)cc(CN2CCN(C)CC2)n1` [Example I-125, (R)-10-methyl-3-(2-((4-methylpiperazin-1-yl)methyl)-6-vinylpyridin-4-yl)-9,10,11,12-tetrahydro-8H-[1,4]diazepino[5′,6′:4,5]thieno[3,2-f]quinolin-8-one] here?
Answer: 2 nM

Question: With `C=Cc1nnc(C)n1-c1ccc2c(ccc3sc4c(c32)NC[C@@H](C)NC4=O)n1` [Example I-223, (R)-10-methyl-3-(3-methyl-5-vinyl-4H-1,2,4-triazol-4-yl)-9,10,11,12-tetrahydro-8H-[1,4]diazepino[5′,6′:4,5]thieno[3,2-f]quinolin-8-one] as the compound, how does the IC50 read?
Answer: 1000 nM
